Test results from patent US4402975A, “Aminocarboxylic acids, amino alcohols, or the derivatives thereof, processes for production thereof, and pharmaceutical uses thereof” (Teijin Limited, priority 1980, dated 1983).
Counter-ions that a name gives are not always drawn.

Columns and labels:
thrombin = assay: Antithrombin activity (recalcification time of plasma); details: rabbit plasma
Protocol: Citrated blood (3.5% sodium citrate: blood=1:9) was drawn from a white native male rabbit (3 to 3.5 kg in body weight). The blood was centrifuged at 3000 rpm to prepare plasma which was used in the following experiment. One milliliter of the plasma was put in a small test tube having an inside diameter of 12 mm, and incubated at 37° C. Then, 0.1 ml of each of the test compounds, dissolved in PBS, was added, and the mixture was further incubated at 37° C. for 2 minutes. Then, 0.2 ml of 0.02 M CaCl2 was added, and a microchronometer was started. While occasionally shaking the test tube, the time which elapsed until the plasma coagulated was measured. As a control, PBS was used.

plasmin = target: T1, plasmin (Homo sapiens, UniProt P00747); assay: Antiplasmin activity (clot lysis time, fibrinogen/urokinase/thrombin); format: biochemical
T1 construct: fibrin clot lysis, native
T1 sequence (P00747 97-810): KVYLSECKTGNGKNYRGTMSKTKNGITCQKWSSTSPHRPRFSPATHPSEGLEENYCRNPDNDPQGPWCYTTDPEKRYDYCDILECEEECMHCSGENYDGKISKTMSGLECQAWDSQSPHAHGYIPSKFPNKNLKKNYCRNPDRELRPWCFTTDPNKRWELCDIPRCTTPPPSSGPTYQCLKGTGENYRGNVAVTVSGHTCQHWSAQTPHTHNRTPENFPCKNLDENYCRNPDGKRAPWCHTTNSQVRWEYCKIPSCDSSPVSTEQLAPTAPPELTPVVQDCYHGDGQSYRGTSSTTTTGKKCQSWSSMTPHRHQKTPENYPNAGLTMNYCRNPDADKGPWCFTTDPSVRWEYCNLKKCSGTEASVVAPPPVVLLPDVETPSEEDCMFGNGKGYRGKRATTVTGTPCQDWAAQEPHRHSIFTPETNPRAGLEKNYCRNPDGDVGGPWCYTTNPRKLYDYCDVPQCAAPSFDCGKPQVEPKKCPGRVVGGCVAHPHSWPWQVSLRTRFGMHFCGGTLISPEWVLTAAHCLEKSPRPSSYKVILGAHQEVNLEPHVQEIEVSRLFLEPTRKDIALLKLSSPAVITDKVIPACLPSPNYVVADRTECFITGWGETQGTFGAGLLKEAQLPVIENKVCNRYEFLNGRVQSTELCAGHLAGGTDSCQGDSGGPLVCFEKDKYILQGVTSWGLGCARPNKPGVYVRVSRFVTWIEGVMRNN
Protocol: Human fibrinogen was dissolved in a phosphate-buffered physiological saline (PBS) at a pH of 7.4 to prepare a 0.2% solution. Urokinase and thrombin were dissolved similarly in PBS to prepare a solution containing 120 units of urokinase and 50 units of thrombin per ml. […] Then, 0.1 ml of the urokinase-thrombin mixed solution was added, and a microchronometer was started. One minute after the starting of the microchronometer, a glass ball having a diameter of 8 mm was put on the coagulated surface, and the incubation was continued. The time which elapsed from the dissolution of the coagulated mass until the glass ball dropped onto the bottom of the test tube was measured. As a control, PBS alone was added.

serotonin ulcer = assay: Inhibitory activity on serotonin ulcer; format: in vivo, SD-strain male rats; details: 30 min before serotonin 20 mg/kg s.c., rats
Protocol: Seven week-old SD-strain male rats (body weight 200 to 220 g) were fasted for 24 hours but water was provided freely, and then used in the following experiment. Each of the test compounds suspended in 0.5% CMC was administered to the rats either orally or intraperitoneally, and 30 minutes later, serotonin (serotonin creatinine sulfate) was subcutaneously administered to the rats in a dose of 20 mg/kg. Four hours later, the animals were sacrificed. The abdomen was cut open, and the stomach was taken out from each animal. 12 ml of 1% formalin was injected into the stomach to inflate it, and the stomach was further dipped for about 10 minutes in 1% formalin for fixation. Then, the stomach was cut open on the side of the lesser curvature, and spread on a glass plate. The area of ulcers generated in the glandular stomach was measured by using a solid microscope. The sum of the area of ulcer for each animal was used as the ulcer index. The ulcer inhibiting ratio of the test compound was calculated in accordance with the following equation. [formula] The control group was given 0.5% CMC and serotonin alone.

gastric secretion = assay: Inhibitory activity on gastric secretion (pylorus ligation); format: in vivo, male rats; details: for Amount of gastric juice: 4 hours after pylorus ligation, control 6.8 ± 0.6, in ml (unit assumed); for Acidity: control 109.1 ± 1.7
Protocol: Seven week-old DS-strain male rats (body weight 200 to 220 g) were fasted for 24 hours but water was provided freely, and then used in the following experiment.
The rats were anesthetized with ether. The abdomen was cut open along the median line to expose the pylorus. Then, the pylorus was ligated. After ligation, each of the test compounds dissolved in physiological saline was intraperitoneally administered to the animals. The abdomen was sutured, and after confirming that the animals recovered from ether anesthesia, they were kept in a wire cage while being deprived of food and water. Four hours later, the animals were killed by using ether. The abdomen was again cut open, and the stomach was removed. The gastric juice was collected, and its volume and acidity was measured. The acidity of the gastric juice was determined by titrating with 0.05 N sodium hydroxide using phenolphthalein as an indicator, and calculating the amount of sodium hydroxide required to neutralize the gastric juice which is estimated as the acidity of the gastric juice.
The control group was given physiological saline alone.
For the method of studying the inhibitory activity on the gastiic secretion, reference may be made to H. Shay, S. A. Komoroe, S. S. Fels, M. Meraze, M. Gruestein and H. Siplet: Gastroent., 5, 43 (1945), and M. L. Anson: J. Gen, Physiol., 21, 79 (1938).

indomethacin ulcer = assay: Inhibitory activity on indomethacin ulcer; format: in vivo, SD-strain male rats; details: 400 mg/kg oral, 30 min before indomethacin 20 mg/kg oral, rats
Protocol: Seven week-old SD-strain male rats (body weight 200 to 220 g) were fasted for 24 hours but water was provided freely, and then used in the following experiment.
Each of the test compounds suspended in 0.5% CMC was orally administered to the rats, and 30 minutes later, indomethacin was orally administered in a dose of 20 mg/kg. Six hours later, the animals were sacrificed. The abdomen was cut open, and the stomach was removed. 1% Evan's blue was injected in an amount of 0.5 ml/rat into the rats through the tail vein under ether anesthesia 10 minutes before sacrificing.
12 ml of a 1% formalin was injected into the stomach and the stomach was further dipped in 1% formalin for about 10 minutes for the fixation. The stomach was cut open on the side of the greater curvature, and spread on a glass plate. The lengths of ulcers generated in the glandular stomach were measured by using a solid microscope. The sum of the lengths of the ulcers for each animal was used as the ulcer index. The ulcer inhibiting ratio of the test compound was calculated in accordance with the following equation. [formula]
The control group was given 0.5% CMC and indomethacin alone.

[1] = 5 × 10^-3 M, second series, control 103.3 ± 7.6
[2] = 5 × 10^-4 M, second series, control 103.3 ± 7.6
[3] = 10^-3 M, first series, control 391.7 ± 16.1
[4] = 10^-4 M, first series, control 391.7 ± 16.1
[5] = 10^-3 M, second series, control 556.7 ± 12.6
[6] = 10^-4 M, second series, control 556.7 ± 12.6

Which results are given for `Cl.NC[C@H]1CC[C@H](C(O)c2ccc(CCC(=O)O)cc2)CC1` (relative stereo) [trans (307) hydrochloride, 3-[p-(trans-4-aminomethylcyclohexylhydroxymethyl)phenyl]propionic acid hydrochloride]?
Recalcification time (thrombin; [1]): 80.7 s; Recalcification time (thrombin; [2]): 104.0 s; Clot lysis time (plasmin; [3]): 546.7 s; Clot lysis time (plasmin; [4]): 411.7 s; Ulcer inhibiting ratio (serotonin ulcer; 100 mg/kg intraperitoneal): 68.7%

What does the source list for `Cl.NCCCCCC(=O)c1ccc(CCC(=O)O)cc1` [(102) hydrochloride, 3-[p-(ε-aminocaproyl)phenyl]propionic acid hydrochloride]?
Recalcification time (thrombin; [1]): 67.0 s; Recalcification time (thrombin; [2]): 98.3 s; Clot lysis time (plasmin; [3]): 476.7 s; Clot lysis time (plasmin; [4]): 423.3 s; Ulcer inhibiting ratio (serotonin ulcer; 100 mg/kg intraperitoneal): 76.2%

For `Cl.NCc1ccc(C(=O)c2ccc(CCC(=O)O)cc2)cc1` [(112) hydrochloride, 3-[p-(4-aminomethylbenzoyl)phenyl]propionic acid hydrochloride], which Ulcer inhibiting ratio (serotonin ulcer; 200 mg/kg oral) is on record?
The Ulcer inhibiting ratio was 95.6%.

How did the “Inhibition ratio (acidity)” value (gastric secretion; 50 mg/kg i.p.) turn out when `CCOC(=O)CCc1ccc(C(=O)CCCCCN)cc1` [(121) hydrochloride, ethyl 3-[p-ε-aminocaproyl)phenyl]propionate hydrochloride] was run?
Its value is 48.9%.

What about the “Inhibition ratio (amount of gastric juice)” value (gastric secretion; 50 mg/kg i.p.) of the same compound?
The value was 77.9%.

And the “Amount of gastric juice” value (gastric secretion; 50 mg/kg i.p.)?
Its value is 1.5 ± 0.4.

What about the Acidity (gastric secretion; 50 mg/kg i.p.) of the same compound?
The Acidity was 55.7 ± 9.3 μeq./ml.

And the “Inhibition ratio (acidity)” value (gastric secretion; 100 mg/kg i.p.)?
Its value is 58.9%.

What about the “Inhibition ratio (amount of gastric juice)” value (gastric secretion; 100 mg/kg i.p.) of the same compound?
Its value is 94.1%.

And the “Amount of gastric juice” value (gastric secretion; 100 mg/kg i.p.)?
The value was 0.4 ± 0.1.

And the Acidity (gastric secretion; 100 mg/kg i.p.)?
Its Acidity is 44.8 ± 5.0 μeq./ml.

And the “Inhibition ratio (acidity)” value (gastric secretion; 200 mg/kg i.p.)?
Its value is 74.4%.

And the “Inhibition ratio (amount of gastric juice)” value (gastric secretion; 200 mg/kg i.p.)?
Its value is 94.1%.

What about the “Amount of gastric juice” value (gastric secretion; 200 mg/kg i.p.) of the same compound?
Its value is 0.4 ± 0.1.

And the Acidity (gastric secretion; 200 mg/kg i.p.)?
The Acidity was 27.9 ± 4.4 μeq./ml.

And the Recalcification time (thrombin; [1])?
The Recalcification time was 96.0 s.

What about the Clot lysis time (plasmin; [5]) of the same compound?
Its Clot lysis time is 670.0 s.

What about the Clot lysis time (plasmin; [6]) of the same compound?
Its Clot lysis time is 543.3 s.

And the Ulcer inhibiting ratio (serotonin ulcer; 100 mg/kg oral)?
Its Ulcer inhibiting ratio is 72.3%.

What about the Ulcer inhibiting ratio (indomethacin ulcer) of the same compound?
Its Ulcer inhibiting ratio is 89.7%.

How did the Recalcification time (thrombin; [1]) turn out when `NCCCCCC(O)c1ccc(CCC(=O)O)cc1` (stereo not shown) [(302), 3-[p-(6-amino-1-hydroxyhex-1-yl)phenyl]-propionic acid] was run?
Its Recalcification time is 82.7 s.

What about the Clot lysis time (plasmin; [5]) of the same compound?
Its Clot lysis time is 736.7 s.

And the Clot lysis time (plasmin; [6])?
Its Clot lysis time is 521.7 s.

What about the Ulcer inhibiting ratio (serotonin ulcer; 100 mg/kg oral) of the same compound?
Its Ulcer inhibiting ratio is 68.1%.

`NCC1CCC(C(=O)Oc2ccc(CCC(=O)O)cc2)CC1` (stereo not shown) [drawing 47, reference compound] was tested. Which Ulcer inhibiting ratio (serotonin ulcer; 100 mg/kg oral) did it give?
The Ulcer inhibiting ratio was 17.5%.

What about the Ulcer inhibiting ratio (serotonin ulcer; 300 mg/kg oral) of the same compound?
Its Ulcer inhibiting ratio is 73.8%.

With `NCC1CCC(C(=O)Oc2ccc(CCC(=O)O)cc2)CC1` (stereo not shown) [drawing 52, reference compound] as the compound, how does the “Inhibition ratio (acidity)” value (gastric secretion; 200 mg/kg i.p.) read?
The value was 52.5%.

And the “Inhibition ratio (amount of gastric juice)” value (gastric secretion; 200 mg/kg i.p.)?
The value was 72.1%.

What about the “Amount of gastric juice” value (gastric secretion; 200 mg/kg i.p.) of the same compound?
The value was 1.9 ± 0.6.

And the Acidity (gastric secretion; 200 mg/kg i.p.)?
The Acidity was 51.8 ± 10.0 μeq./ml.

What about the “Inhibition ratio (acidity)” value (gastric secretion; 400 mg/kg i.p.) of the same compound?
Its value is 70.3%.

And the “Inhibition ratio (amount of gastric juice)” value (gastric secretion; 400 mg/kg i.p.)?
Its value is 86.8%.

What about the “Amount of gastric juice” value (gastric secretion; 400 mg/kg i.p.) of the same compound?
Its value is 0.9 ± 0.2.

And the Acidity (gastric secretion; 400 mg/kg i.p.)?
The Acidity was 32.4 ± 2.4 μeq./ml.

With `NCC1CCC(C(=O)Oc2ccc(CCC(=O)O)cc2)CC1` (stereo not shown) [drawing 54, reference compound] as the compound, how does the Clot lysis time (plasmin; [3]) read?
Its Clot lysis time is over 1800 s.

What about the Clot lysis time (plasmin; [4]) of the same compound?
The Clot lysis time was over 1800 s.

And the Clot lysis time (plasmin; 10^-5 M, first series, control 391.7 ± 16.1)?
Its Clot lysis time is 1045.0 ± 13.2 s.

What about the Clot lysis time (plasmin; 10^-6 M, first series, control 391.7 ± 16.1) of the same compound?
The Clot lysis time was 441.7 ± 21.8 s.

How did the Clot lysis time (plasmin; 10^-5 M, second series, control 556.7 ± 12.6) turn out when `NCC1CCC(C(=O)Oc2ccc(CCC(=O)O)cc2)CC1` (stereo not shown) [drawing 56, reference compound] was run?
Its Clot lysis time is 1398 ± 53.0 s.

What about the Clot lysis time (plasmin; 10^-6 M, second series, control 556.7 ± 12.6) of the same compound?
The Clot lysis time was 600.0 ± 37.7 s.

For `NCC1CCC(C(=O)Oc2ccc(CCC(=O)O)cc2)CC1` (stereo not shown) [drawing 58, reference compound], which Recalcification time (thrombin; 5 × 10^-4 M, first series, […]) is on record?
The Recalcification time was 122.7 ± 2.5 s.

What about the Recalcification time (thrombin; 5 × 10^-5 M, first series, […]) of the same compound?
Its Recalcification time is 115.3 ± 1.2 s.

Which Recalcification time (thrombin; 5 × 10^-5 M, second series, control 103.3 ± 7.6) does the source give for `NCC1CCC(C(=O)Oc2ccc(CCC(=O)O)cc2)CC1` (stereo not shown) [drawing 60, reference compound] here?
Its Recalcification time is 144.0 ± 2.6 s.

What about the Recalcification time (thrombin; 5 × 10^-6 M, second series, control 103.3 ± 7.6) of the same compound?
The Recalcification time was 114.7 ± 2.5 s.
